Measured values taken from patent US11274099B2 (Superb Wisdom Limited, priority 2017, dated 2022).

Assay: Pharmacokinetic analysis in male SD rats after IV bolus, plasma by LC-MS/MS
Format: in vivo
Conditions: rat, IV bolus 0.04 mg/kg; for Cmax / half-life: 3 rats per group; for half-life: read-out: T1/2, ± SD (converted); for MRT inf: read-out: MRT0-Inf (Mean Residence Time); for MRT last: read-out: MRT0-last (Mean Residence Time); for Vd: read-out: Vdss (apparent volume of distribution at equilibrium); for AUC(0-t): time zero to last measurable concentration; for AUC(0-inf): zero up to ∞
Description: Each of the tested compounds was administered as an IV bolus (3 rats per group) at a dose 0.04 mg/kg. Rats were fasted at least 12 hours prior to administration of test compound. […] Blood samples were processed for plasma and analyzed by LC-MS/MS for the following pharmacokinetic parameters: Cmax, T1/2, CL, Vdss, AUC0-last, AUC0-∞, MRT0-last, and MRT0-∞.

[2H]C([2H])([2H])C(O)(Cn1c(COCC)nc2c(N)nc3ccccc3c21)C([2H])([2H])[2H] [Compound 104, 2-((4-amino-2-(ethoxymethyl)-1H-imidazo[4,5-c]quinolin-1-yl)methyl)propan-1,1,1,3,3,3-d6-2-ol]
Cmax: 40.3 ± 10.7 ng/mL
half-life: 1.85 ± 1.05 h
MRT inf: 2.1 ± 0.663 h
MRT last: 1.5 ± 0.328 h
Vd: 2.62 ± 0.516 L/kg
AUC(0-t): 56.2 ± 6.51 ng·h/mL
AUC(0-inf): 60.4 ± 7.71 ng·h/mL

CCOCc1nc2c(N)nc3ccccc3c2n1CC(C)(C)O [Resiquimod, 1-(4-Amino-2-(ethoxymethyl)-1H-imidazo[4,5-c]quinolin-1-yl)-2-methylpropan-2-ol, reference compound]
Cmax: 43.8 ± 10.9 ng/mL
half-life: 1.03 ± 1.72 h
MRT inf: 1.37 ± 0.139 h
MRT last: 1.09 ± 0.081 h
Vd: 2.46 ± 0.361 L/kg
AUC(0-t): 42.1 ± 6.04 ng·h/mL
AUC(0-inf): 45.9 ± 6.67 ng·h/mL

[2H]C([2H])([2H])C([2H])([2H])OCc1nc2c(N)nc3ccccc3c2n1CC(C)(C)O [Compound 107, 1-(4-amino-2-((ethoxy-d5)methyl)-1H-imidazo[4,5-c]quinolin-1-yl)-2-methylpropan-2-ol]
Cmax: 40.1 ± 8.82 ng/mL
half-life: 2.41 ± 1.71 h
MRT inf: 2.43 ± 0.735 h
MRT last: 1.66 ± 0.151 h
Vd: 3.23 ± 0.581 L/kg
AUC(0-t): 54.8 ± 6.02 ng·h/mL
AUC(0-inf): 59.4 ± 8.16 ng·h/mL

[2H]C([2H])([2H])C(O)(C([2H])([2H])[2H])C([2H])([2H])n1c(COCC)nc2c(N)nc3ccccc3c21 [Compound 113, 1-(4-amino-2-(ethoxymethyl)-1H-imidazo[4,5-c]quinolin-1-yl)-2-(methyl-d3)propan-1,1,3,3,3-d5-2-ol]
Cmax: 44.5 ± 14.2 ng/mL
half-life: 1.97 ± 1.76 h
MRT inf: 1.79 ± 0.884 h
MRT last: 1.26 h
Vd: 2.61 ± 0.732 L/kg
AUC(0-t): 49.3 ± 8.99 ng·h/mL
AUC(0-inf): 53 ± 11.2 ng·h/mL
